Assay results from PMC12040169 (PLOS Biology, 2025).

test: in vitro; conditions: human, hela cells, % viability

Going from O=C(CSCc1ccc(Br)cc1)Nc1ccc(S(=O)(=O)N2CCOCC2)cc1 [CBK267845] to NS(=O)(=O)c1ccc(NC(=O)c2ccc(COc3ccccc3)o2)cc1 [CBK267915], the viability at 28.5 h, 10 µM rises from 97.1% to 104%.

Compared with O=C(c1ccno1)n1nccc1-c1cc(-c2ccccc2)no1 [CBK022074], OCCN1CCN(c2nnc(-c3ccccc3)cc2-c2ccccc2)CC1 [CBK270045] is lower in viability at 28.5 h, 10 µM: 101% for the first, 86.2% for the second.

Compared with CCn1cc(C(=O)N2CCCC2c2nc3ccccc3[nH]2)c(C)n1 (centres unmarked) [CBK283777], CCC(O)c1cc2n(n1)CCN(C(=O)c1cn(-c3ccccc3)nn1)C2 (centres unmarked) [CBK306708] is higher in viability at 28.5 h, 10 µM: 90.2% for the first, 93.7% for the second.

First: Cc1cc(C)c(OCCOCCN2CCN(C)CC2)c(Cl)c1 [CBK263744G]
Second: Cc1ccc(OCCCC(=O)N2CCCc3c(cnn3C)C2)c(C)c1 [CBK285288]
The viability at 28.5 h, 10 µM of the first is higher: 98.6% for the first, 96.9% for the second.

First: COc1ccc2[nH]cc(CCNC(=O)c3ccco3)c2c1 [CBK116204]
Second: COC(=O)c1cc(C(=O)Nc2ccc(OCCC(N)=O)cc2)c[nH]1 [CBK305486]
The viability at 28.5 h, 10 µM of the first is lower: 96.5% for the first, 103% for the second.

Going from Cc1c(S(=O)(=O)Nc2ccc3nsnc3c2)cnn1-c1ccccc1 [CBK062229] to Cc1ccc(S(=O)(=O)Nc2ccc3[nH]ccc3c2)cc1 [CBK153519], the viability at 28.5 h, 10 µM rises from 87.6% to 92.5%.

First: COc1ccc(CCCC(=O)Nc2cncc(OC3CCNCC3)n2)cc1OC [CBK028437T]
Second: COc1ccc(CN2CCN(C(=O)c3cccs3)CC2)cc1OC [CBK074410]
The viability at 28.5 h, 10 µM of the first is lower: 87.3% for the first, 104% for the second.

First: COc1cc(CNCc2ccccn2)ccc1OCc1cccc(Cl)c1 [CBK269877C]
Second: Cc1c(-c2cccc(Cl)c2)nc2ccccc2c1C(=O)NCCc1ccc(S(N)(=O)=O)cc1 [CBK267784]
The viability at 28.5 h, 10 µM of the first is lower: 94.7% for the first, 96% for the second.

Compared with COc1cccc(-c2nnc(SCc3nc4ccccc4[nH]3)n2N)c1 [CBK267549], O=S(=O)(NCc1nc2ccccc2[nH]1)c1ccccc1 [CBK269460] is higher in viability at 28.5 h, 10 µM: 91% for the first, 94.6% for the second.

Compared with COC(=O)c1ccc(-c2ccsc2)nc1 [CBK149229], CCNC(=O)Nc1cc2cccnc2c(-c2ccsc2)n1 [CBK081226] is lower in viability at 28.5 h, 10 µM: 116% for the first, 106% for the second.

Compared with O=C(Nc1cccc(CCc2ccncc2)c1)C1CC(=O)N(Cc2ccncc2)C1 (centres unmarked) [CBK286287], Cc1ccc2[nH]c(-c3cccc(NC(=O)c4ccc(-n5cnnc5)cc4)c3)nc2c1 [CBK285839] is higher in viability at 28.5 h, 10 µM: 89.6% for the first, 94.1% for the second.

Going from Cc1c(C(N)=O)sc2nc(C(F)(F)F)cc(N)c12 [CBK061693] to COc1ccc(-c2cc(C(F)(F)F)c3c(n2)sc2c(=O)cc(O)[nH]c23)cc1OC [CBK270201], the viability at 28.5 h, 10 µM falls from 97.1% to 84.6%.

Compared with O=C1Nc2ccc(-c3ccccc3F)cc2C(=O)N2CCN(C(=O)C3CCNCC3)C[C@H]12 [CBK289592], C[C@]12CN(Cc3cccs3)C[C@H]1NC(=O)c1ccccc1C2=O [CBK284702] is higher in viability at 28.5 h, 10 µM: 87.3% for the first, 89.2% for the second.

First: COc1ccc([C@H](NC(=O)C2CCN(C(=O)OCc3ccccc3)CC2)c2ccccc2C)cn1 [CBK084639]
Second: Cc1ccc(OCC(=O)Nc2ccccc2N2CCN(S(C)(=O)=O)CC2)cc1 [CBK268722]
The viability at 28.5 h, 10 µM of the first is higher: 92.9% for the first, 84% for the second.

Compared with Cn1c(/N=C(\C=N\c2cc(=O)n(C)c(=O)n2C)c2ccccc2)cc(=O)n(C)c1=O [CBK303237], Cc1cc(Br)ccc1NC(=O)Cn1cnc2c1c(=O)n(C)c(=O)n2C [CBK133289] is higher in viability at 28.5 h, 10 µM: 87.3% for the first, 95.6% for the second.

Compared with Cc1nn(C(C)CC(=O)NCc2ccco2)c(C)c1Br (centres unmarked) [CBK269797], Cc1csc(C(Cc2cccs2)NC(=O)CN(C)C)n1 (centres unmarked) [CBK285124] is higher in viability at 28.5 h, 10 µM: 89.5% for the first, 97.9% for the second.

Going from N=C1OC2CSCC2N1C(=O)C1(c2ccccc2)CC1 (centres unmarked) [CBK284524] to O=C(CN1C(=O)CCC1=O)NCCc1ccccc1 [CBK262326], the viability at 28.5 h, 10 µM falls from 106% to 98.3%.

Compared with COc1ccc(C(=O)C2=C(O)C(=O)N(CCCN(C)C)C2c2ccncc2)cc1Cl (centres unmarked) [CBK266529], O=C(CSc1nnc(-c2ccncc2)[nH]1)c1ccc(O)cc1O [CBK264353] is lower in viability at 28.5 h, 10 µM: 109% for the first, 102% for the second.

Compared with CC(C)(C)c1ccc(OCc2nnc(S)n2N)cc1 [CBK268421], CC(C)(CN)CN(Cc1ccccc1C(F)(F)F)C(=O)Nc1ccc(C(C)(C)C)cc1 [CBK026828C] is higher in viability at 28.5 h, 10 µM: 89.1% for the first, 92.4% for the second.

Going from O=C(Nc1ccc(OC(F)(F)F)cc1)c1nn(-c2ncccn2)c2ccccc12 [CBK048510] to Cn1c(CNc2ccc(C(=O)O)cc2)nc2ccccc21 [CBK262501], the viability at 28.5 h, 10 µM falls from 98.9% to 95.1%.

First: Cc1c(NC2CCN(c3ccc(C#N)cc3)C2=O)cnn1C1CCCC1 (centres unmarked) [CBK304735]
Second: Cc1ccc(N2CCCn3c2nc2c3c(=O)n(CC(=O)O)c(=O)n2C)cc1 [CBK286740]
The viability at 28.5 h, 10 µM of the first is higher: 113% for the first, 90.5% for the second.

First: Cc1cc(C(=O)O)cc(S(=O)(=O)N2CCOCC2)c1C [CBK264497]
Second: CN1CCN(S(=O)(=O)c2ccc(Br)cc2C(F)(F)F)CC1 [CBK062437]
The viability at 28.5 h, 10 µM of the first is lower: 89.5% for the first, 90.7% for the second.

Going from NC(=O)CCN1CCc2ccccc2C1 [CBK138325] to O=C(c1cscn1)N1CCc2ccccc2C1 [CBK200342], the viability at 28.5 h, 10 µM rises from 88.3% to 96.6%.

First: CCCc1nc(CN2CCNC(=O)C2c2ccccc2C(F)(F)F)no1 (centres unmarked) [CBK304123]
Second: Cc1cccc(-c2noc(CCC(=O)NCC3CCCO3)n2)c1 (centres unmarked) [CBK268241]
The viability at 28.5 h, 10 µM of the first is lower: 93.2% for the first, 118% for the second.

Going from Nc1nonc1OCCCCOc1nonc1N [CBK027716] to CCOc1cc(N2CCOCC2)c(OCC)cc1NC(=O)CSc1ccccc1C(=O)O [CBK296107], the viability at 28.5 h, 10 µM falls from 110% to 97.1%.

Going from Cc1ccccc1OC(C)C(=O)NCCCN1CCOCC1 (centres unmarked) [CBK268628] to CC(C)Oc1ccc(C(=O)N2CCN(c3ccccc3)CC2)cc1 [CBK305847], the viability at 28.5 h, 10 µM falls from 112% to 83.5%.

Going from CCc1ccc(CNC(=O)c2ccc3c(c2)NC(=O)C(N2CCOCC2)S3)cc1 (centres unmarked) [CBK071737] to CC(=O)Nc1ccc(-c2ccc(C(=O)NC3CC3)cn2)cc1 [CBK158854], the viability at 28.5 h, 10 µM falls from 93.2% to 84.9%.

Compared with CC[C@H]1CN(S(=O)(=O)c2c(C)noc2C)CC[C@H]1CC(=O)Nc1nccs1 [CBK288779], CCc1nn(CC(=O)NC2CC2)c(=O)c2cc3ccsc3n12 [CBK284128] is higher in viability at 28.5 h, 10 µM: 88.3% for the first, 88.6% for the second.

Compared with O=C(CCn1cccn1)NC(Cc1ccsc1)c1cccnc1 (centres unmarked) [CBK285393], Cc1ccc2nc(-c3ccc(NC(=O)CSc4nc(-c5ccccc5)cc(=O)[nH]4)cc3)sc2c1 [CBK265861] is lower in viability at 28.5 h, 10 µM: 101% for the first, 78.5% for the second.

Compared with CCN1C(=O)CC2(C1=O)C(=O)N(CCCOc1ccccc1)c1ccc(OC)cc12 (centres unmarked) [CBK075585], CN(C)C(=O)CCCN1C(=O)CC2(C1=O)C(=O)N(C)c1ccc(F)cc12 (centres unmarked) [CBK075380] is higher in viability at 28.5 h, 10 µM: 98% for the first, 103% for the second.

Compared with CCC(Oc1ccccc1)C(=O)Nc1cc(OC)c(Cl)cc1OC (centres unmarked) [CBK262235], COc1cc2c(cc1OC)CN(C(=O)c1ccc3[nH]cnc3c1)CC2 [CBK295331] is lower in viability at 28.5 h, 10 µM: 112% for the first, 52.8% for the second.

Going from CN(C)Cc1ncccc1OCCO [CBK001411C] to COc1cncc(-c2cccc(N3CCN(CCN(C)C)CC3)n2)c1 [CBK037024], the viability at 28.5 h, 10 µM falls from 111% to 97.4%.

Going from Cc1nnc(SCC(=O)NCCc2ccccc2)nc1O [CBK268045] to Cc1nc2ccc(C(=O)c3ccccc3O)cn2c(=O)c1CCC(=O)O [CBK295618], the viability at 28.5 h, 10 µM rises from 92% to 94.5%.

Going from Cc1ccccc1-n1nc(-c2ccc(NC(=O)c3ccccc3)cc2)cc1NC(=O)c1ccccc1 [CBK261264] to O=C(/C=C/c1cn(-c2ccccc2)nc1-c1cccnc1)c1ccc(-c2ccccc2)cc1 [CBK263213], the viability at 28.5 h, 10 µM rises from 82.2% to 95.5%.

First: O=C(NCc1nnc(-c2cccs2)o1)C1c2ccccc2Oc2ccccc21 [CBK286297]
Second: N#Cc1ccccc1CSc1nc2ccc(NC(=O)c3ccc([N+](=O)[O-])cc3)cc2s1 [CBK265868]
The viability at 28.5 h, 10 µM of the first is higher: 94.8% for the first, 90.7% for the second.

Going from Cc1nonc1NC(=O)CN1CCCCC1 [CBK261839] to Cn1ncc(Cl)c1C1CCCCCN1C(=O)c1ccco1 (centres unmarked) [CBK284915], the viability at 28.5 h, 10 µM falls from 110% to 104%.

Going from CNCS(=O)(=O)C(F)(F)S(=O)(=O)N(C)C [CBK018820] to CN(C)C(=O)CN1C(=O)CC2(C1=O)C(=O)N(C)c1ccc(Cl)cc12 (centres unmarked) [CBK075232], the viability at 28.5 h, 10 µM rises from 89.7% to 90.2%.

Going from O=C1CN(C(=O)Nc2ccccc2Cl)CCN1 [CBK155862] to O=c1[nH]c(CN2CCN(c3ncccn3)CC2)nc2ccccc12 [CBK269918], the viability at 28.5 h, 10 µM rises from 96.7% to 98.3%.

Going from c1csc(COc2nccnc2-c2ccsc2)c1 [CBK106770] to CS(=O)(=O)N(Cc1ccccc1F)c1ccccc1C(=O)O [CBK287239], the viability at 28.5 h, 10 µM rises from 100% to 104%.

Compared with Nc1nnc(CC(=O)N/N=C/c2cc(Br)c(O)c(Br)c2O)s1 [CBK262131], Nc1cc(=O)[nH]c(SCC(=O)Nc2ccc(S(N)(=O)=O)cc2)n1 [CBK265021] is lower in viability at 28.5 h, 10 µM: 96% for the first, 91.2% for the second.

Going from Cn1c(=O)c2c(nc(CN3CCOCC3)n2CCN2CCOCC2)n(C)c1=O [CBK269560] to Cn1c(=O)c2c(nc(SCC(=O)CSc3nc4c(c(=O)n(C)c(=O)n4C)n3C)n2C)n(C)c1=O [CBK267692], the viability at 28.5 h, 10 µM falls from 106% to 86.9%.

Compared with O=C(Nc1ccc(Cl)cc1)Nc1ccc(OCC(O)CN2CCCCC2)cc1 (centres unmarked) [CBK086101], Cc1ccc2c(c1)CCCN2C(=O)c1csc2c(C(F)(F)F)cc(N3CCOCC3)nc12 [CBK028367] is higher in viability at 28.5 h, 10 µM: 99.4% for the first, 116% for the second.

Compared with Cc1ccc(S(=O)(=O)Nc2cc(C)on2)cc1 [CBK261119], Cc1cc(C)n(C2CCN(Cc3c(C)nc4c(C)cccn34)CC2)n1 [CBK281617] is higher in viability at 28.5 h, 10 µM: 93.7% for the first, 101% for the second.

Going from Cc1cc(C)c2c(CC(=O)N(C)CCN(C)C)c(C)[nH]c2c1 [CBK282732] to COC(=O)c1c(NC(=S)N2CCN(Cc3c(C)nn(C)c3C)CC2)sc2c1CCC(C)C2 (centres unmarked) [CBK267103], the viability at 28.5 h, 10 µM rises from 83.6% to 94.9%.

same assay, conditions: human, hela cells, % viability, bulk resorufin, single well

In the case of CCOC(=O)C1(c2ccccc2)CCN(C(=O)c2ccco2)CC1 [CBK132199], the viability at 28.5 h, 10 µM was 86.2%.
